Test results from patent US8192962B2, “Processes for detecting toxic substances” (Daikin Industries, Ltd., priority 2001, dated 2012).

System: Genes belonging to other category
Assay: DNA chip mRNA expression in yeast, genes belonging to other category (Table 9)
Assay type: cell-based, Saccharomyces cerevisiae S288C
How it was run: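 Ratios compare mRNA levels in stressed and control S. cerevisiae. Each toxicant was applied for two hours to log-phase cultures at 25° C. at a sub-lethal, growth-inhibiting level; fluorescent cDNA (Cy3- or Cy5-dUTP) was hybridized to a genome-wide yeast chip for over 12 h at 65° C.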

Measured: The level of expressed mRNA in the presence of chemical substance/The level of expressed mRNA in the absence of chemical substance

O=[N+]([O-])c1cc[n+]([O-])c2ccccc12 [(5), 4-nitroquinolin-N-oxide]
1.8: yeast gene YDL008W | yeast gene YDL018C | yeast gene YDL137W | yeast gene YDR373W | yeast gene YGL011C | yeast gene YGR120C | yeast gene YGR274C | yeast gene YIL076W | yeast gene YKL117W | yeast gene YNR010W
0.6: yeast gene YIL123W | yeast gene YJL210W | yeast gene YKL096W | yeast gene YMR297W
1.5: yeast gene YER025W | yeast gene YER039C | yeast gene YHR004C | yeast gene YHR071W | yeast gene YHR195W | yeast gene YLR362W | yeast gene YMR238W | yeast gene YNL333W | yeast gene YOR261C
1.0: yeast gene YAR010C | yeast gene YAR062W | yeast gene YBL101C | yeast gene YBR212W | yeast gene YBR290W | yeast gene YDR259C | yeast gene YDR378C | yeast gene YDR481C | yeast gene YFR004W | yeast gene YGL158W | yeast gene YGL229C | yeast gene YGR023W | yeast gene YHR132C | yeast gene YKL007W | yeast gene YKR076W | yeast gene YLR178C | yeast gene YMR004W | yeast gene YOL109W | yeast gene YOR327C | yeast gene YOR355W
2.1: yeast gene YCR096C
1.2: yeast gene YCL027W | yeast gene YCR004C | yeast gene YCR071C | yeast gene YDR084C | yeast gene YDR403W | yeast gene YER009W | yeast gene YFL043C | yeast gene YGR136W | yeast gene YGR213C | yeast gene YIL010W | yeast gene YJL073W | yeast gene YJR117W | yeast gene YLR391W | yeast gene YNL007C | yeast gene YNL093W | yeast gene YOR117W | yeast gene YOR185C | yeast gene YPL109C | yeast gene YPL154C
1.7: yeast gene YDR055W | yeast gene YER130C | yeast gene YFL028C | yeast gene YPR103W
0.7: yeast gene YBL078C | yeast gene YDR388W | yeast gene YDR510W | yeast gene YEL042W | yeast gene YFL022C | yeast gene YGR189C | yeast gene YKL039W | yeast gene YMR104C | yeast gene YMR275C | yeast gene YOL013C | yeast gene YOR157C | yeast gene YOR181W
1.6: yeast gene YBL041W | yeast gene YDR432W | yeast gene YLR136C | yeast gene YMR219W | yeast gene YOL164W
0.8: yeast gene YEL066W | yeast gene YIL140W | yeast gene YOR198C | yeast gene YPL149W
0.5: yeast gene YCL020W
0.9: yeast gene YDL238C | yeast gene YDR085C | yeast gene YDR315C | yeast gene YKL008C | yeast gene YKL165C | yeast gene YMR094W | yeast gene YMR226C | yeast gene YNL006W | yeast gene YOR383C
1.3: yeast gene YBL005W-A | yeast gene YDR104C | yeast gene YER107C | yeast gene YGL094C | yeast gene YGL207W | yeast gene YGR257C | yeast gene YHR139C | yeast gene YHR142W | yeast gene YJL116C | yeast gene YJR086W | yeast gene YKL041W | yeast gene YLR327C | yeast gene YMR276W | yeast gene YPR108W
1.4: yeast gene YAL055W | yeast gene YAR009C | yeast gene YBR009C | yeast gene YBR283C | yeast gene YCR062W | yeast gene YDL192W | yeast gene YDR115W | yeast gene YDR358W | yeast gene YER021W | yeast gene YFL026W | yeast gene YHR185C | yeast gene YJL035C | yeast gene YLR250W | yeast gene YLR429W | yeast gene YNR069C | yeast gene YPL010W | yeast gene YPL089C | yeast gene YPR080W
1.1: yeast gene YBL043W | yeast gene YBR214W | yeast gene YCR088W | yeast gene YHR027C | yeast gene YHR169W | yeast gene YJL053W | yeast gene YJL089W | yeast gene YJL164C | yeast gene YJR004C | yeast gene YKL193C | yeast gene YLR120C | yeast gene YLR356W | yeast gene YOR036W | yeast gene YOR124C | yeast gene YOR132W | yeast gene YOR288C
2.0: yeast gene YGR253C | yeast gene YOR259C
1.9: yeast gene YCR039C | yeast gene YER094C | yeast gene YKL013C
